In patent US7776833B2, “Use of cyclic bioisosters of purine system derivatives for treating diseases produced by disorders of niterergic and dopaminergic systems” (priority 2003, dated 2010):

What was measured:
Format in all cases: in vivo, Wistar rats
[1] = system: physical dependence from morphine (morphine abstinence); experiment: Morphine abstinence syndrome, signs scored in the open field test; details: Morphine − (morphine + compound); compound 3 x 20 mg/kg intramuscularly; one value for the three compounds
[2] = system: nitrites and nitrates (NOx-); experiment: Measurement of nitrates/nitrites (NOx-) in brain regions after the morphine abstinence experiment; details: 3 x 20 mg/kg intramuscularly
Outline: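 Rat brain regions homogenized in 20 mM HEPES pH 7.5 at 4 °C; deproteinized supernatants treated with nitrate reductase, 25 μM NADPH, 25 μM FAD (37 °C, 30 min), then DAN in acid; naphthotriazole fluorescence (ex 365/em 405 nm) against sodium nitrate standard, expressed as nmol/mg protein (Bradford).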

[3] = system: nitric oxide synthase (NOS); experiment: Nitric oxide synthase activity in brain regions, radiometric [3H]L-citrulline method; details: 3 x 20 mg/kg intramuscularly
Outline: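 Rat cortex, hippocampus, mesencephalon, striatum, brainstem, hypothalamus and cerebellum were homogenized in 20 mM HEPES pH 7.5, and the 11000 g supernatant was incubated 15-60 min at 37 °C with [3H]L-arginine, 0.2 mM CaCl2, FAD, FMN, NADPH and BH4. [3H]L-citrulline was counted after Dowex removal of arginine. Ca2+-dependent/independent activity was split using EDTA ± L-NAME, per mg Bradford protein.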

[4] = Groups Nos. 3-14, compound without morphine, one value for all 12 compounds
[5] = Morphine + compound, one value for the three compounds

Compound | Authentic differences (ξ-square criterion) in appearance of signs of abstinence: <<Wet dog>> shakes [1] | Authentic differences (ξ-square criterion) in appearance of signs of abstinence: Aggression [1] | Authentic differences (ξ-square criterion) in appearance of signs of abstinence: Convulsions [1] | Authentic differences (ξ-square criterion) in appearance of signs of abstinence: Diarrhea [1] | Authentic differences (ξ-square criterion) in appearance of signs of abstinence: Dyspnea [1] | Authentic differences (ξ-square criterion) in appearance of signs of abstinence: Forelimb jogging [1] | Authentic differences (ξ-square criterion) in appearance of signs of abstinence: Grit with teeth [1] | Authentic differences (ξ-square criterion) in appearance of signs of abstinence: Mastication [1] | Authentic differences (ξ-square criterion) in appearance of signs of abstinence: Piloerection [1] | Authentic differences (ξ-square criterion) in appearance of signs of abstinence: Ptosis [1] | Authentic differences (ξ-square criterion) in appearance of signs of abstinence: Rhinorrhea [1] | Authentic differences (ξ-square criterion) in appearance of signs of abstinence: Squeak when touched [1] | Nitrites, brainstem [2, 4] | Nitrites, cerebellum [2, 4] | Nitrites, cerebral cortex [2, 4] | Nitrites, hippocampus [2, 4] | Nitrites, hypothalamus [2, 4] | Nitrites, midbrain [2, 4] | Nitrites, striatum [2, 4] | Nitrites, brainstem [2, 5] | further results
O=c1[nH]n([C@@H]2O[C@H](CO)[C@@H](O)[C@H]2O)c(=O)c2ncccc12.[Na] [Compound 1, sodium salt of 7-(β-D-ribofuranosile)pyrido[2,3-d]-6H-pyridazine-5,8-dione] | 1.0000 | 0.8327 | 0.7821 | 0.0046 | 0.0722 | 0.7821 | 0.7144 | 0.1888 | 0.1847 | 0.0201 | 0.3017 | 0.1888 | 6.31 ± 0.58 nmol/mg of protein | 6.66 ± 0.63 nmol/mg of protein | 4.31 ± 0.37 nmol/mg of protein | 6.47 ± 0.72 nmol/mg of protein | 6.77 ± 0.83 nmol/mg of protein | 6.65 ± 0.70 nmol/mg of protein | 6.11 ± 0.29 nmol/mg of protein | 6.57 ± 0.72 nmol/mg of protein | Nitrites, cerebellum [2, 5]: 5.46 ± 0.44 nmol/mg of protein; Nitrites, cerebral cortex [2, 5]: 4.72 ± 0.37 nmol/mg of protein; Nitrites, hippocampus [2, 5]: 5.44 ± 0.43 nmol/mg of protein; Nitrites, hypothalamus [2, 5]: 6.57 ± 0.88 nmol/mg of protein; Nitrites, midbrain [2, 5]: 5.50 ± 0.48 nmol/mg of protein; Nitrites, striatum [2, 5]: 3.57 ± 0.42 nmol/mg of protein; Activity of NOS, hippocampus [3, 4]: 3.09 ± 0.16 nmol/min/mg of protein; Activity of NOS, hypothalamus [3, 4]: 5.45 ± 0.24 nmol/min/mg of protein; Activity of NOS, midbrain [3, 4]: 2.60 ± 0.29 nmol/min/mg of protein; Activity of NOS, striatum [3, 4]: 1.26 ± 0.08 nmol/min/mg of protein; Activity of NOS, hippocampus [3, 5]: 2.70 ± 0.14 nmol/min/mg of protein; Activity of NOS, hypothalamus [3, 5]: 5.26 ± 0.28 nmol/min/mg of protein; Activity of NOS, midbrain [3, 5]: 1.83 ± 0.23 nmol/min/mg of protein; Activity of NOS, striatum [3, 5]: 1.24 ± 0.08 nmol/min/mg of protein
O=c1[nH][nH]c(=O)c2c(Br)ncnc12.[K] [Compound 37, potassium salt of 4-bromine-pyrimido[4,5-d]-6H-pyridazine-5,8-dione] | 1.0000 | 0.8456 | 0.5578 | 0.0001 | 0.0685 | 0.9321 | 0.7003 | 0.1888 | 0.2345 | 0.0232 | 0.2935 | 0.2035 | 6.31 ± 0.58 nmol/mg of protein | 6.66 ± 0.63 nmol/mg of protein | 4.31 ± 0.37 nmol/mg of protein | 6.47 ± 0.72 nmol/mg of protein | 6.77 ± 0.83 nmol/mg of protein | 6.65 ± 0.70 nmol/mg of protein | 6.11 ± 0.29 nmol/mg of protein | 6.87 ± 0.81 nmol/mg of protein | Nitrites, cerebellum [2, 5]: 5.93 ± 0.54 nmol/mg of protein; Nitrites, cerebral cortex [2, 5]: 4.84 ± 0.31 nmol/mg of protein; Nitrites, hippocampus [2, 5]: 5.31 ± 0.33 nmol/mg of protein; Nitrites, hypothalamus [2, 5]: 6.77 ± 0.46 nmol/mg of protein; Nitrites, midbrain [2, 5]: 5.95 ± 0.52 nmol/mg of protein; Nitrites, striatum [2, 5]: 3.57 ± 0.42 nmol/mg of protein; Activity of NOS, hippocampus [3, 4]: 3.09 ± 0.16 nmol/min/mg of protein; Activity of NOS, hypothalamus [3, 4]: 5.45 ± 0.24 nmol/min/mg of protein; Activity of NOS, midbrain [3, 4]: 2.60 ± 0.29 nmol/min/mg of protein; Activity of NOS, striatum [3, 4]: 1.26 ± 0.08 nmol/min/mg of protein; Activity of NOS, hippocampus [3, 5]: 2.65 ± 0.15 nmol/min/mg of protein; Activity of NOS, hypothalamus [3, 5]: 5.56 ± 0.34 nmol/min/mg of protein; Activity of NOS, midbrain [3, 5]: 1.89 ± 0.27 nmol/min/mg of protein; Activity of NOS, striatum [3, 5]: 1.34 ± 0.09 nmol/min/mg of protein
O=c1[nH]n([C@@H]2O[C@H](CO)[C@@H](O)[C@H]2O)c(=O)c2nccc(O)c12.[Na] [Compound 4, isodium salt of 4-hydroxy-7-(β-D-ribofuranosile)pyrido[2,3-d]-6H-pyridazine-5,8-dione] | 1.0000 | 0.8327 | 0.7821 | 0.0046 | 0.0722 | 0.7821 | 0.7144 | 0.1888 | 0.1847 | 0.0201 | 0.3017 | 0.1888 | 6.31 ± 0.58 nmol/mg of protein | 6.66 ± 0.63 nmol/mg of protein | 4.31 ± 0.37 nmol/mg of protein | 6.47 ± 0.72 nmol/mg of protein | 6.77 ± 0.83 nmol/mg of protein | 6.65 ± 0.70 nmol/mg of protein | 6.11 ± 0.29 nmol/mg of protein | 6.57 ± 0.72 nmol/mg of protein | Nitrites, cerebellum [2, 5]: 5.46 ± 0.44 nmol/mg of protein; Nitrites, cerebral cortex [2, 5]: 4.72 ± 0.37 nmol/mg of protein; Nitrites, hippocampus [2, 5]: 5.44 ± 0.43 nmol/mg of protein; Nitrites, hypothalamus [2, 5]: 6.57 ± 0.88 nmol/mg of protein; Nitrites, midbrain [2, 5]: 5.50 ± 0.48 nmol/mg of protein; Nitrites, striatum [2, 5]: 3.57 ± 0.42 nmol/mg of protein; Activity of NOS, hippocampus [3, 4]: 3.09 ± 0.16 nmol/min/mg of protein; Activity of NOS, hypothalamus [3, 4]: 5.45 ± 0.24 nmol/min/mg of protein; Activity of NOS, midbrain [3, 4]: 2.60 ± 0.29 nmol/min/mg of protein; Activity of NOS, striatum [3, 4]: 1.26 ± 0.08 nmol/min/mg of protein; Activity of NOS, hippocampus [3, 5]: 2.70 ± 0.14 nmol/min/mg of protein; Activity of NOS, hypothalamus [3, 5]: 5.26 ± 0.28 nmol/min/mg of protein; Activity of NOS, midbrain [3, 5]: 1.83 ± 0.23 nmol/min/mg of protein; Activity of NOS, striatum [3, 5]: 1.24 ± 0.08 nmol/min/mg of protein
O=c1[nH]n([C@@H]2O[C@H](CO)[C@@H](O)[C@H]2O)c(=O)c2nc(Br)ncc12.[Na] [Compound 32, sodium salt of 2-bromine-7-(β-D-ribofuranosile)pyrimido[4,5-d]-6H-pyridazine-5,8-dione] | 1.0000 | 0.8456 | 0.5578 | 0.0001 | 0.0685 | 0.9321 | 0.7003 | 0.1888 | 0.2345 | 0.0232 | 0.2935 | 0.2035 | 6.31 ± 0.58 nmol/mg of protein | 6.66 ± 0.63 nmol/mg of protein | 4.31 ± 0.37 nmol/mg of protein | 6.47 ± 0.72 nmol/mg of protein | 6.77 ± 0.83 nmol/mg of protein | 6.65 ± 0.70 nmol/mg of protein | 6.11 ± 0.29 nmol/mg of protein | 6.87 ± 0.81 nmol/mg of protein | Nitrites, cerebellum [2, 5]: 5.93 ± 0.54 nmol/mg of protein; Nitrites, cerebral cortex [2, 5]: 4.84 ± 0.31 nmol/mg of protein; Nitrites, hippocampus [2, 5]: 5.31 ± 0.33 nmol/mg of protein; Nitrites, hypothalamus [2, 5]: 6.77 ± 0.46 nmol/mg of protein; Nitrites, midbrain [2, 5]: 5.95 ± 0.52 nmol/mg of protein; Nitrites, striatum [2, 5]: 3.57 ± 0.42 nmol/mg of protein; Activity of NOS, hippocampus [3, 4]: 3.09 ± 0.16 nmol/min/mg of protein; Activity of NOS, hypothalamus [3, 4]: 5.45 ± 0.24 nmol/min/mg of protein; Activity of NOS, midbrain [3, 4]: 2.60 ± 0.29 nmol/min/mg of protein; Activity of NOS, striatum [3, 4]: 1.26 ± 0.08 nmol/min/mg of protein; Activity of NOS, hippocampus [3, 5]: 2.65 ± 0.15 nmol/min/mg of protein; Activity of NOS, hypothalamus [3, 5]: 5.56 ± 0.34 nmol/min/mg of protein; Activity of NOS, midbrain [3, 5]: 1.89 ± 0.27 nmol/min/mg of protein; Activity of NOS, striatum [3, 5]: 1.34 ± 0.09 nmol/min/mg of protein
